Reference: patent US20110178168A1, “COUMARIN COMPOUNDS FOR THE TREATMENT OF CARDIOVASCULAR DISEASES AND A PROCESS FOR PREPARING THE SAME” (priority 2008, published 2011)

Legend:
[1] = target: T1, Calreticulin transacetylase (CRTAase) (Homo sapiens, UniProt P27797); test: TAase (calreticulin transacetylase) activity; type: biochemical
T1 sequence (P27797 18-417): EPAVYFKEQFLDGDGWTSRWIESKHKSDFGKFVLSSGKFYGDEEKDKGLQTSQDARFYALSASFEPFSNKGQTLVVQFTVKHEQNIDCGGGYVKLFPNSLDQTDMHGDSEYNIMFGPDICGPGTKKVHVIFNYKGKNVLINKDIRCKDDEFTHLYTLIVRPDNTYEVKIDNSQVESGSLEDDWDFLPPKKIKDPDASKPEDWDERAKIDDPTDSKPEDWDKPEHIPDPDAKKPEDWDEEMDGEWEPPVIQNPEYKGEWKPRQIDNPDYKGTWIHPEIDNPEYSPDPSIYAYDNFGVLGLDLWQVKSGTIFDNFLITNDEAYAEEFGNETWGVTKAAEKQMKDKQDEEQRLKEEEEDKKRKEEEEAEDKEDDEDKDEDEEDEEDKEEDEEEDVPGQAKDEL
Excerpt: (§1) Platelet Nitric Oxide Synthase (NOS) is remakably activated by way of acetylation catalyzed by Calreticulin transacetylase (CRTAase) leading to robust enhancement of NO in platelets. Compounds of Formula I enhance NO in platelets. Due to this activity, these compounds enhance the NOS leading to enhancement of platelet NO which contributes to the antiplatelet action. […] They are effective in causing the inhibition of ADP induced as well as collagen induced platelet aggregation both invitro and exvivo.

platelets [2] = test: ADP-induced platelet aggregation in vitro (platelet rich plasma); type: cell-based
Excerpt: A. Preparation of Platelet Rich, Plasma for the IN VITRO Studies

platelets [3] = test: ADP-induced platelet aggregation ex vivo (platelet rich plasma); type: in vivo
Excerpt: C. Preparation of Platelet Rich Plasma for the EX VIVO Studies

[4] = test system: intracellular nitric oxide level in platelets; test: Enhancement of nitric oxide in platelets; type: cell-based
Excerpt: Nitric oxide is known to mediate a number of pharmacological actions such as vasorelaxation, lowereing of blood pressure and inhibition of platelet aggregation. […] The specific acyl group attached to the coumarin derivative is attributed to the enhancement of intracellular nitric oxide level leading to the inhibition of ADP induced platelet aggregation.
as §1

TAase activity (Units) [1]	SMILES	ADP-induced platelet aggregation (% inhibition) IN VITRO (platelets [2])	ADP-induced platelet aggregation (% inhibition) EX VIVO (platelets [3]) [%]	Enhancement of nitric oxide (folds) [4]
Nil	COC(=O)C(c1ccccc1Cl)N1CCc2sccc2C1 (centres unmarked)	Nil	65	Nil
Nil	CC(=O)Oc1ccccc1C(=O)O [ASPIRIN, Aspirin]	Nil	55	Nil
